Reference: PMC12375108 (Nature Communications, 2025)

Legend:
Format in all cases: binding
[1] = molecular target: T1, H. sapiens hinT H112N (human hinT^HN) (Homo sapiens, UniProt P49773, H112N); experiment: competition pulldown with sucA-AMP, α-AMP immunoblot; conditions: GST-tagged hinT on beads, sucA-AMP 470 nM, GMP up to 11.75 μM, TBS with Triton X-100, 1 mM DTT, 4 °C; competitive
T1 construct: gene HINT1
T1 sequence (P49773 1-126 H112N): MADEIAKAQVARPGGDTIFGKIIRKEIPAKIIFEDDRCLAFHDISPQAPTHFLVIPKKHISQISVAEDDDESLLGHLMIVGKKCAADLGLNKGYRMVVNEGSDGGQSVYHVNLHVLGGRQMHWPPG

[2] = molecular target: T2, E. coli hinT H101N (Ec hinT^HN) (Escherichia coli, UniProt P0ACE7, H101N); experiment: isothermal titration calorimetry
T2 construct: expressed from pProEx in E. coli BL21, 6xHis cut by TEV, SEC; ATG replaces native TTG start
T2 sequence (P0ACE7 1-119 H101N): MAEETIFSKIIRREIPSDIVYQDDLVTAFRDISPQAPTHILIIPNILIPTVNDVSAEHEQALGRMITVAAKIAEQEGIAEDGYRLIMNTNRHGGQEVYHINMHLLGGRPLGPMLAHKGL

[3] = molecular target: T3, T. marianensis hinT H100N (Tm hinT^HN) (Thermaerobacter marianensis, UniProt E6SKA2, H100N); experiment: isothermal titration calorimetry
T3 construct: gene Tmar_2180; expressed from pProEx in E. coli BL21, 6xHis cut by TEV, SEC

[4] = molecular target: T1, H. sapiens hinT H112N (human hinT^HN); experiment: isothermal titration calorimetry

Row | Structure (SMILES) | competition pulldown with sucA-AMP, α-AMP immunoblot [1] | Kd [2] [µM] | Kd [3] [µM] | Kd [4] [µM]
1 | Nc1nc2c(ncn2[C@@H]2O[C@H](COP(=O)(O)O)[C@@H](O)[C@H]2O)c(=O)[nH]1 [GMP] | increasing concentrations of GMP showed weaker competition with AMPylated proteins for binding to Hs hinT^HN |  |  | 
2 | Nc1ncnc2c1ncn2[C@@H]1O[C@H](COP(=O)(O)O)[C@@H](O)[C@H]1O [AMP] |  | 69 | 3 | 0.279
